Where a name gives a salt, the structure may show the parent alone.

In general, melting point refers to the temperature, or range, at which the solid turns liquid. Turning to `COc1ccc(OC)c2c(Nc3ccc(C)c(O)c3)c(C#N)cnc12` [Example 239, 4-(3-Hydroxy-4-methyl-phenylamino)-5,8-dimethoxy-quinoline-3-carbonitrile], the melting point was in the range of 240 to 242 °C.

As to `COc1cc2c(Nc3ccc(Cl)cc3F)c(C#N)cnc2cc1OCc1ccccc1` (as salt: hydrochloride) [Example 322, 7-Benzyloxy-4-(4-chloro-2-fluoro-phenylamino)-6-methoxy-quinoline-3-carbonitrile], the melting point lay within 241 to 243 °C.

For `COc1ccc(Cl)cc1Nc1c(C#N)cnc2cc(OC)c(OC)cc12` [Example 372, 4-(5-Chloro-2-methoxyphenylamino)-6,7-dimethoxy-quinoline-3-carbonitrile], the melting point was in the range of 200 to 202 °C.

On to `COc1ccc2c(Nc3cc(O)c(Cl)cc3F)c(C#N)cnc2c1` [Example 282, 4-(4-Chloro-2-fluoro-5-hydroxy-phenylamino)-7-methoxy-quinoline-3-carbonitrile], for which the melting point was 240 °C (dec.).

As for `COc1cc2c(Nc3ccc(O)cc3C)c(C#N)cnc2cc1OCCCN1CCOCC1` [Example 312, 4-(4-Hydroxy-2-methyl-phenylamino)-6-methoxy-7-(3-morpholin-4yl-propoxy)-quinoline-3-carbonitrile], the melting point lay in the range of 120 to 126 °C.

Molecule `COc1cc2c(Nc3ccccc3SC)c(C#N)cnc2cc1OCCCN1CCOCC1` [Example 314, 6-Methoxy-4-(2-methylsulfanyl-phenylamino)-7-(3-morpholin-4-yl-propoxy)-quinoline-3-carbonitrile] yielded a melting point of 179 to 180 °C.

In the case of `COc1cc2ncc(C#N)c(Nc3cccc(CO)c3)c2cc1OC` [Example 48, 4-[(3-(hydroxymethyl)phenyl)amino]-6,7-dimethoxy-3-quinolinecarbonitrile], the melting point is 250 to 255 °C.

The molecule `COc1cc2ncc(C#N)c(Nc3cccc(C(=O)O)c3C)c2cc1OC` [Example 368, 3-(3-Cyano-6,7-dimethoxy-quinolin-4-ylamino) -2-methyl-benzoic acid] yielded a melting point of 242 to 245 °C.

`CN(C)CC#CC(=O)Nc1ccc2ncc(C#N)c(Nc3cccc(Br)c3)c2c1` [Example 59, N-[4-[(3-Bromophenyl)amino]-3-cyano-6-quinolinyl]-4-dimethylamino-2-butynamide] displayed a melting point of 114 to 118 °C.

As for `COc1cc2ncc(C#N)c(Nc3ccc(C)c(Cl)c3)c2cc1OC` [Example 370, 4-(3-Chloro-4-methyl-phenylamino)-6,7-dimethoxy-quinoline-3-carbonitrile], the melting point was > 250 °C.

Molecule `COc1ccc(OC)c2c(Nc3cccc(N(C)C)c3)c(C#N)cnc12` [Example 242, 4-(3-Dimethylamino-phenylamino)-5,8-dimethoxy-quinoline-3-carbonitrile] displayed a melting point of 103 to 105 °C.

Turning to `COc1ccc(Nc2c(C#N)cnc3c(OC)cccc23)cc1O` [Example 279, 4-(3-Hydroxy-4-methoxy-phenylamino)-8-methoxy-quinoline-3-carbonitrile], the melting point is 138 to 140 °C (dec.).

In the case of `COCC#CC(=O)Nc1ccc2ncc(C#N)c(Nc3cccc(Br)c3)c2c1` [Example 60, N-[4-[(3-Bromophenyl)amino]-3-cyano-6-quinolinyl]-4-methoxy-2-butynamide], the melting point is 198 to 202 °C (dec.).

Regarding `N#Cc1cnc2ccc(N)cc2c1Nc1ccc(F)c(Br)c1` [Example 196, 6-amino-4-[(3-Bromo-4-fluorophenyl)amino]-3-quinolinecarbonitrile], the melting point is 210 to 212 °C.

`N#Cc1cnc2cc(O)c(O)cc2c1Nc1ccc(Cl)cc1F` [Example 373, 4-(4-Chloro-2-fluoro-phenylamino)-6,7-dihydroxy-quinoline-3-carbonitrile] yielded a melting point of 270 to 272 °C.

For the molecule `COc1ccc2ncc(C#N)c(Nc3ccc(C)c(O)c3)c2c1` [Example 284, 4-(3-Hydroxy-4-methyl-phenylamino)-6-methoxy-quinoline-3-carbonitrile], the melting point was > 250 °C (dec.).

For the molecule `COc1cc2ncc(C#N)c(Nc3cc(Br)c(O)c(Br)c3)c2cc1OC` [Example 291, 4-(3,5-Dibromo-4-hydroxy-phenylamino)-6,7-dimethoxy-quinoline-3-carbonitrile], the melting point is > 250 °C.

Consider `COCC#CC(=O)Nc1ccc2ncc(C#N)c(Nc3ccc(F)c(Cl)c3)c2c1` [Example 194, N-[4-[-(3-Chloro-4-fluorophenyl)amino]-3-cyano-6-quinolinyl]-4-methoxy-2-butynamide], for which the melting point was 170 to 171 °C.

In the case of `COc1cc2ncc(C#N)c(Nc3cc(Cl)c(O)c(Cl)c3)c2cc1OC` [Example 286, 4-(3,5-Dichloro-4-hydroxy-phenylamino)-6,7-dimethoxy-quinoline-3-carbonitrile], the melting point is > 250 °C.

With `COc1ccc2ncc(C#N)c(Nc3cc(O)c(Cl)cc3F)c2c1` [Example 285, 4-(4-Chloro-2-fluoro-5-hydroxy-phenylamino)-6-methoxy-quinoline3-carbonitrile], the melting point is 228 to 230 °C.

In turn, `COc1cc2ncc(C#N)c(Nc3ccc(C(F)(F)F)cc3)c2cc1OC` [Example 376, 6,7-Dimethoxy-4-(4-trifluoromethyl-phenylamino)-quinoline-3-carbonitrile] displayed a melting point of 116 to 118 °C.

As to `COc1cc2c(Nc3cccc(Br)c3)c(C#N)cnc2c(OC)c1OC` [Example 241, 4-(3-Bromo-phenylamino)-6,7,8-trimethoxy-quinoline-3-carbonitrile], the melting point was in the range of 211 to 213 °C.

`COc1cc2ncc(C#N)c(Nc3ccc(C)c(Br)c3)c2cc1OC` [Example 248, 4-(3-Bromo-4-methyl-phenylamino)-6,7-dimethoxy-quinoline-3-carbonitrile] returned a melting point of 292 to 294 °C.

`COc1cccc2c(Nc3ccc(Br)c(O)c3)c(C#N)cnc12` [Example 278, 4-(4-Bromo-3-hydroxy-phenylamino)-8-methoxy-quinoline-3-carbonitrile]: the melting point is 146 °C (dec.).

Regarding `CC(C)N(CC#CC(=O)Nc1ccc2ncc(C#N)c(Nc3cccc(Br)c3)c2c1)C(C)C` [Example 192, N-[4-[(3-Bromophenyl)amino]-3-cyano-6-quinolinyl]-4-diisopropylamino-2-butynamide], the melting point is 130 °C (dec.).

Consider `COc1cc2ncc(C#N)c(Nc3ccc(Cl)cc3C)c2cc1OC` [Example 336, 4-(4-Chloro-2-methylphenylamino)-6,7-dimethoxyquinoline-3-carbonitrile], for which the melting point was 227 to 229 °C.

Turning to `COc1cc2ncc(C#N)c(Nc3ccc(Cl)c(C(F)(F)F)c3)c2cc1OC` [Example 338, 4-(4-Chloro-3-trifluoromethylphenylamino)-6,7-dimethoxyquinoline-3-carbonitrile], the melting point is 265 to 267 °C.

In turn, `COc1cc2c(Nc3cc(O)c(Cl)cc3F)c(C#N)cnc2c(OC)c1OC` [Example 244, 4-(4-Chloro-2-fluoro-5-hydroxy-phenylamino)-6,7,8-trimethoxy-quinoline-3-carbonitrile] came in with a melting point of 223 to 225 °C.

Turning to `CN1CCN(CC#CC(=O)Nc2ccc3ncc(C#N)c(Nc4cccc(Br)c4)c3c2)CC1` [Example 190, N-[4-[(3-Bromophenyl)amino]-3-cyano-6-quinolinyl]-4-(N-methylpiperazino)-2-butynamide], the melting point was 190 °C (dec.).

As for `COc1ccc(Nc2c(C#N)cnc3cc(OC)c(OC)cc23)c(C)c1` [Example 367, 6,7-Dimethoxy-4-(4-methoxy-2-methyl-phenylamino)-quinoline-3-carbonitrile], the melting point was > 131 °C (dec.).

In the case of `COc1cc2ncc(C#N)c(Nc3cccc(C(N)=O)c3)c2cc1OC` [Example 247, 3-(3-Cyano-6,7-dimethoxy-quinolin-4-ylamino)-benzamide], the melting point lay within 253 to 255 °C.

`CCN(CC)CC#CC(=O)Nc1ccc2ncc(C#N)c(Nc3ccc(F)c(Cl)c3)c2c1` [Example 189, N-[4-[(3-Chloro-4-fluorophenyl)amino]-3-cyano-6-quinolinyl]-4-diethylamino-2-butynamide] returned a melting point of 117 to 120 °C.

With `COc1cc2ncc(C#N)c(Nc3ccc(F)cc3)c2cc1OC` [Example 46, 4-[(4-Fluorophenyl)amino]-6,7-dimethoxy-3-quinolinecarbonitrile], the melting point lay in the range of 282 to 285 °C.

For `CCN1CCN(CC#CC(=O)Nc2ccc3ncc(C#N)c(Nc4cccc(Br)c4)c3c2)CC1` [Example 188, N-[4-[(3-Bromophenyl)amino]-3-cyano-6-quinolinyl]-4-(N-ethylpiperazino)-2-butynamide], the melting point is 161 °C (dec.).

In the case of `N#Cc1cnc2ccc(NC(=O)C#CCO)cc2c1Nc1cccc(Br)c1` [Example 57, N-[4-[(3-Bromophenyl)amino]-3-cyano-6-quinolinyl]-4-hydroxy-2-butynamide], the melting point is 253 to 254 °C (dec.).

In turn, `COc1ccc(OC)c2c(Nc3cccc(Br)c3)c(C#N)cnc12` [Example 240, 4-(3-Bromo-phenylamino)-5,8-dimethoxy-quinoline-3-carbonitrile] returned a melting point of 72 to 74 °C.

As for `COc1ccc2ncc(C#N)c(Nc3ccc(Cl)cc3F)c2c1` [Example 283, 4-(4-Chloro-2-fluoro-phenylamino)-6-methoxy-quinoline-3-carbonitrile], the melting point was > 250 °C.

For `COc1cc2ncc(C#N)c(Nc3ccccc3CCO)c2cc1OC` [Example 301, 4-[2-(2-Hydroxy-ethyl)-phenylamino]-6,7-dimethoxy-quinoline-3-carbonitrile], the melting point is 159 to 162 °C.

`COc1cc2ncc(C#N)c(Nc3ccc(CCO)cc3)c2cc1OC` [Example 299, 4-[4-(2-Hydroxy-ethyl)-phenylamino]-6,7-dimethoxy-quinoline-3-carbonitrile] returned a melting point of 208 to 210 °C.

In the case of `COc1cc2ncc(C#N)c(Nc3ccc(Cl)cc3F)c2cc1OC` [Example 228, 4-(4-Chloro-2-fluoro-phenylamino)-6,7-dimethoxy-quinoline-3-carbonitrile], the melting point lay within 139 to 141 °C.
